Entries after “also recorded” stand apart in the source; their conditions may differ.
How the values were obtained:
[1] = Pilot tolerability study of intrathecal RTX infusion; type: in vivo, C57Bl/6J mice
Method: The purpose of this study was to investigate the effects of single intrathecal administration of RTX on the AAV-A53T mouse model of PD-like pathology. Prior to this study start, a pilot tolerability study was conducted in which 16 male and 16 female C57Bl/6J mice were infused with RTX at two doses (either 0.04 μg or 0.125 μg) and followed up for 24 hours thereafter to observe any possible adverse effects of the treatment.
Of the 32 total mice used in the pilot study arm, in total 4 mice died during the 24 hour monitoring period after intrathecal infusion of RTX. Two females treated with 0.125 μg dose were found dead in cage within 4-24 hours after infusion due to unknown reason.

[2] = tested on: AAV-A53T mouse model of Parkinson's Disease-like (PD) pathology; assay: Fine motor kinematic gait analysis 7 weeks after AAV infusion; type: in vivo, C57Bl/6J male mice; conditions: for overall gait analysis score: vs AAV1/2-A53T Vehicle
Method: (§1) For this study, a total of 110 male C57Bl/6J mice two months of age were infused with either AAV-A53T (90 mice) or AAV-Null (20 mice) into substantia nigra unilaterally to induce PD-like pathology or to serve as sham controls, respectively. Mice infused with AAV-Null (empty) vector (“sham-infused” mice) were used in order to control for the effect of the viral infusion. After 7 or 14 days of AAV-A53T mediated disease model induction, the mice were treated with RTX (0.04 μg or 0.125 μg) (5 μL volume, prepared from a 25 μg/ml RTX solution containing Polysorbate 80 at 0.03% w/v, dextrose at 0.05% w/v, Phosphate Buffer at 30 mM, and NaCl 0.54% w/v, pH 7.2, and diluted in saline as needed) by single intrathecal infusion at lumbar spinal cord area. One AAV-Null and AAV-A53T infused group per each time point were treated with vehicle instead of RTX.
The mice were then treated with RTX or vehicle by intrathecal infusion 7 or 14 days after AAV infusion. The mice were assigned to treatment groups as follows: • Group 1: 10 male mice sham-infused with AAV-null, and administered vehicle at D7. • Group 2: 15 male mice infused with AAV-A53T, and administered vehicle at D7. • Group 3: 15 male mice infused with AAV-A53T, and administered 0.04 μg of RTX at D7. • Group 4: 15 male mice infused with AAV-A53T, and administered 0.125 μg of RTX at D7. • Group 5: 10 male mice sham-infused with AAV-null, and administered vehicle at D14. • Group 6: 15 male mice infused with AAV-A53T, and administered vehicle at D14. • Group 7: 15 male mice infused with AAV-A53T, and administered 0.04 μg of RTX at D14. • Group 8: 15 male mice infused with AAV-A53T, and administered 0.125 μg of RTX at D14.
The fine motor skills of the mice were evaluated 7 weeks post infusion (MotoRater, TSE Systems, Homburg, Germany) using walking mode. On the day of testing the mice were marked in appropriate points of body, such as joints of limbs and parts of tail to ease the data analysis process. The movement data was captured using a high-speed camera (300 frames/second) from three different dimensions, from below and both sides. Different gait patterns and movements were analyzed using a custom-made automated analysis system. The analyzed parameters include: 1) general gait pattern parameters (stride time and speed, step width, stance and swing time during a stride, interlimb coordination), 2) body posture and balance (toe clearance, iliac crest and hip height, hind limb protraction and retraction, tail position and movement), and 3) fine motor skills (swing speed during a stride, jerk metric during swing phase, angle ranges and deviations of different joints, vertical and horizontal head movement).
The gait parameters always have several (and complex) inter-correlations. For example, a shorter stride duration and longer step lengths lead to higher speed. Different “gait features”, which are manifested in sets of highly correlating parameters, can be identified using Principal Component Analysis (PCA). Principal Component Analysis is a statistical tool to compact the information in a multivariate data set, reveal correlations between original variables, and ultimately, create a small set of new and sensitive uncorrelated parameters, the principal components (PC).
PCA is a linear transformation based on principal component coefficients and eigenvectors. The transformed, new, uncorrelated variables are called the PC scores. The first principal component (PC) corresponds to such linear combination of data which has the largest possible variance. The second PC has again the largest possible variance of what is left when the proportion of the first PC is discarded, and so on for the rest of the PCs. The eigen vectors also reveal information about the internal structure of the data, i.e., mutually correlated parameters. Each PC score represent combined information of all the parameters which are emphasized in the corresponding PC. […]

[3] = Adverse effects and mortality monitoring in the main AAV-A53T study; type: in vivo, C57Bl/6J male mice
Method: as §1
The mice were then treated with RTX or vehicle by intrathecal infusion 7 or 14 days after AAV infusion. […]
Animals were monitored daily by laboratory personnel. […]

[4] = D7 both doses, vs AAV-A53T Vehicle, p<0.05 unpaired t-test
[5] = D7 high dose, vs AAV-A53T Vehicle, p<0.05 unpaired t-test

For `C=C(C)[C@]12C[C@@H](C)[C@@]34O[C@](Cc5ccccc5)(O[C@@H]1[C@@H]3C=C(COC(=O)Cc1ccc(O)c(OC)c1)C[C@]1(O)C(=O)C(C)=C[C@@H]41)O2` [RTX, Resiniferatoxin], the “adverse effects in the rest of the mice” value ([1]; 0.04 μg or 0.125 μg, 24 hour follow-up) was “No significant adverse effects”, the “found dead in cage within 4-24 hours after infusion” value ([1]; 0.125 μg dose, unknown reason) was “Two females” and the “died immediately after infusion” value ([1]; 0.125 μg dosing group) was “one female and one male mouse”. For the same molecule, the “mice died during the 24 hour monitoring period after intrathecal infusion” value ([1]; 32 mice total (16 male, 16 female), RTX 0.04 μg or 0.125 μg intrathecal) was 4 mice, the diagonal gait [2, 4] was “significantly recovered” and the “hip ROM” value [2, 4] was “significantly recovered”. For the same molecule, the “hind limb stance time” value [2, 5] was “significantly recovered”, the “hip ROM deviation” value [2, 5] was “significantly recovered” and the “homolateral and homologous gait” value [2, 5] was “significantly recovered”. The minimum knee angle [2, 5] was “significantly recovered”, the “single and double support” value [2, 5] was “significantly recovered” and the stride time [2, 5] was “significantly recovered”. The support diagonal [2, 5] was “significantly recovered”, the support three [2, 5] was “significantly recovered” and the head rotation ([2]; D14 both doses, vs AAV-A53T Vehicle, p<0.05 unpaired t-test) was “significantly recovered”. The “hip ROM” value ([2]; D14 high dose, vs AAV-A53T Vehicle, p<0.05 unpaired t-test) was “significantly recovered”, the “overall gait analysis score” value ([2]; RTX 0.04 μg at D7, Dunnett's test p=0.0063) was “significant treatment effect; also recorded: significantly improved” and the “overall gait analysis score” value ([2]; RTX 0.125 μg at D7, Dunnett's test p=0.0011) was “significant treatment effect; also recorded: significantly improved”. For the same molecule, the “overall gait analysis score” value ([2]; both RTX doses at D14, p>0.05 one-way ANOVA) was “statistically non-significant trend towards the respective AAV-Null group; also recorded: statistically non-significant trending effect; also recorded: not statistically significant; also recorded: trend towards the AAV1/2-Null group”, the “recovery of motor functions / motor skills” value ([2]; early RTX treatment (D7), analyzed 7 weeks after AAV infusion) was “significant rescuing effect; also recorded: dose-dependent recovery of motor functions” and the “mortalities, distribution between groups” value ([3]; 6 mice out of 110 lost including vehicle-treated mice, attributed to surgical procedure and anesthesia) was “evenly spread between the vehicle and both RTX low and high dose groups”. The “adverse effects of intrathecal RTX administration” value ([3]; low or high dose (0.04 μg or 0.125 μg), D7 or D14) was “No significant adverse effects”.

— patent publication US12201608B2, “Methods for treating Parkinson's disease by administering resiniferatoxin” (Sorrento Therapeutics, Inc., priority 2018, dated 2025)
